Results published in patent publication US20080081823A1, “PIPECOLIC ACID-CONTAINING ANTIDIABETIC COMPOSITIONS” (Ajinomoto Co., Inc., priority 2006, published 2008).

What was measured:
[1] = test system: model mice with Type II diabetes; assay: Insulin tolerance test in model mice with Type II diabetes; type: in vivo, Male KK-Ay mice; conditions: KK-Ay mice, feed adding 0.8%, ninth week, insulin 0.5 U/kg subcutaneous, compared with additive-free group
Description: (§1) (c) 24 KK-Ay mice were divided into 3 groups based on their body weights, and the blood glucose levels and transitions of the blood insulin concentrations when injected glucose. Feeds adding 0, 0.4 or 0.8% D,L pipecolic acid were provided to each group for 10 weeks. At the second and eighth weeks after starting the test, their blood glucose levels and blood insulin concentrations after oral injection of glucose were measured. At the ninth week, the insulin tolerance test was conducted, and at the tenth week, autopsy was conducted to the samples to measure weights of epididymal fats and perinephric fats.
(§2) (c) Farming mice: 24 male KK-Ay mice of 5 weeks old were purchased from Clea Japan, Inc. and each was separately farmed in an animal room in a light-dark cycle of 12 hours (7:00 to 19:00) at room temperature of 25° C. Then, KK-Ay mice were divided into 3 groups based on their blood glucose levels and blood insulin concentrations measured when giving glucose. […] At the second and eighth weeks, the oral glucose tolerance test was conducted, and their blood glucoses and blood insulin concentrations after oral injection of glucose were measured. […] Then, at the tenth week, autopsy was conducted to the samples, and weights of epididymal fats and perinephric fats were measured to see effects of pipecolic acid on weights of visceral fats. […]

obese model rats = assay: Oral glucose tolerance test in obese model rats (high-fat diets) provided with pipecolic acid for 4 weeks; type: in vivo, Male SD rats; conditions: 0.2 or 0.4% added to high-fat diets for 4 weeks
Source text: (a) It is reported that obese model rats produced by giving high-fat diets express insulin resistance and develop hyperinsulinemia. It was examined whether the increase of the blood glucose and blood insulin concentration after oral injection of glucose to these obese model rats could be inhibited by providing them with D,L pipecolic acid for 4 weeks.
(b) Male SD rats of 6 weeks old were used to start the experiment.
(c) 48 rats were divided into 2 groups so that their fasting blood glucoses and body weights became the same. Normal diets or high-fat diets were given to them for 3 weeks (model production period). […] 0, 15, 30, 60, and 120 minutes after the administration, their blood glucose levels and blood insulin concentrations were measured. […]
(d) Farming rats: 48 (6 experimental sections×8) male SD rats of 5 weeks old were purchased from Charles River Laboratories Japan, Inc. and each was separately farmed in an animal room in a light-dark cycle of 12 hours (7:00 to 19:00) at room temperature of 25° C. […] Every Mondays, Wednesdays and Fridays during all periods starting from the model production period to the end of the test period, their body weights and amounts of food ingested were measured, and the feeds were added. […]

[2] = test system: model mice with Type II diabetes; assay: Measurement of lipids in the blood of model mice with Type II diabetes; type: in vivo, Male KK-Ay mice; conditions: KK-Ay mice, feed adding 1.6% for 5 weeks, fasting, average value
Description: (§3) (a) It was examined whether D,L pipecolic acid has an effect on blood and liver lipids of model mice with Type II diabetes.
(§4) (b) Male KK-Ay mice of 6 weeks old were used to start the experiment.
(c) 16 KK-Ay mice were divided into 2 groups based on their body weights. Feeds wherein 0 or 1.6% D,L pipecolic acid was added were provided to each group for 5 weeks. At the fifth week, they were fasted, and their blood was collected and their livers were extracted to measure their fasting blood triglyceride, fasting blood total cholesterol, fasting free fatty acids in the blood, total lipids in the liver, liver triglyceride and liver total cholesterol. […]
(c) Farming mice: 16 (2 experimental sections×8) male KK-Ay mice of 4 weeks old were purchased from Clea Japan, Inc. and each was separately farmed in an animal room in a light-dark cycle of 12 hours (7:00 to 19:00) at room temperature of 25° C. […] Every Mondays, Wednesdays and Fridays during the period, their body weights and amounts of food ingested were measured, and the feeds were added. […] The fasting blood triglyceride, fasting blood total cholesterol, fasting free fatty acids in the blood, total lipids in the liver, liver triglyceride and liver total cholesterol were measured by using those samples. […]

[3] = test system: model mice with Type II diabetes; assay: Autopsy: weights of epididymal fats and perinephric fats in model mice with Type II diabetes; type: in vivo, Male KK-Ay mice; conditions: KK-Ay mice, feed adding 0.8%, autopsy at tenth week
Description: as §1, §2

[4] = test system: model mice with Type II diabetes; assay: Measurement of lipids in the liver of model mice with Type II diabetes; type: in vivo, Male KK-Ay mice; conditions: KK-Ay mice
Description: as §3, §4
(c) 16 KK-Ay mice were divided into 2 groups based on their body weights. Feeds wherein 0 or 1.6% D,L pipecolic acid was added were provided to each group for 5 weeks. At the fifth week, they were fasted, and their blood was collected and their livers were extracted to measure their fasting blood triglyceride, fasting blood total cholesterol, fasting free fatty acids in the blood, total lipids in the liver, liver triglyceride and liver total cholesterol.
(§5) (b) Preparation of feeds: D,L pipecolic acid (produced by Aldrich) was mixed in small portions with a commercial feed (CRF-1, produced by Oriental Yeast Co., Ltd.) and further mixed together for 5 minutes by using a universal mixer (produced by Dalton Corporation).
(c) Farming mice: 16 (2 experimental sections×8) male KK-Ay mice of 4 weeks old were purchased from Clea Japan, Inc. and each was separately farmed in an animal room in a light-dark cycle of 12 hours (7:00 to 19:00) at room temperature of 25° C. After naturalizing two weeks, they were divided into 2 groups based on their body weights, and the above feeds were provided to them for 5 weeks. Every Mondays, Wednesdays and Fridays during the period, their body weights and amounts of food ingested were measured, and the feeds were added. After 5 weeks passed, they were fasted for 17 hours, their blood was collected and their livers were extracted. The fasting blood triglyceride, fasting blood total cholesterol, fasting free fatty acids in the blood, total lipids in the liver, liver triglyceride and liver total cholesterol were measured by using those samples.
(e) Measurement of lipids in the liver: About 0.5 g of a liver sample is homogenized in 10 mL of chloroform/methanol (2:1) solution, and lipids are extracted overnight. […] 5 mL thereof is concentrated by drying with a centrifugal evaporator, and its weight measured becomes total lipids in the liver. […]

[5] = test system: model mice with Type II diabetes; assay: Oral glucose tolerance test in model mice with Type II diabetes; type: in vivo, Male KK-Ay mice; conditions: KK-Ay mice; for increase of blood glucose in the oral glucose tolerance test: feed adding 0.4%
Source text: (a) It was examined whether D,L pipecolic acid has an effect of improving the pathology of model mice with Type II diabetes.
(b) Male KK-Ay mice, which are the model mice with Type II diabetes, were used to start the experiment.
as §1, with “fats. […]” for “fats.”
(c) Farming mice: 24 male KK-Ay mice of 5 weeks old were purchased from Clea Japan, Inc. and each was separately farmed in an animal room in a light-dark cycle of 12 hours (7:00 to 19:00) at room temperature of 25° C. Then, KK-Ay mice were divided into 3 groups based on their blood glucose levels and blood insulin concentrations measured when giving glucose. […] At the second and eighth weeks, the oral glucose tolerance test was conducted, and their blood glucoses and blood insulin concentrations after oral injection of glucose were measured. […] Then, at the tenth week, autopsy was conducted to the samples, and weights of epididymal fats and perinephric fats were measured to see effects of pipecolic acid on weights of visceral fats.
(d) Oral glucose tolerance test: Fasting was started at 20:00 of the day before the test. […] 0, 30, 60, 120, 180, and 240 minutes after the administration, their blood was collected and their blood glucose levels and blood insulin concentrations were measured. The blood glucose levels were promptly measured after the blood collection by using a biochemical auto-analyzer for animals (Fuji DriChem 5500, produced by Fuji Photo Film Co., Ltd.). […]

normal rats = assay: Oral glucose tolerance test in normal rats provided with pipecolic acid feed for 4 weeks; type: in vivo, Male SD rats; conditions: normal SD rats
Source text: (a) It was examined whether the increase of the blood glucose after oral injection of glucose to normal rats could be inhibited by providing them with D,L pipecolic acid for 4 weeks.
(b) Male SD rats of 9 weeks old were used to start the experiment.
(c) 24 normal rats were divided into 3 groups (each group consisting of 8 rats) so that their fasting blood glucose and body weights became the same. Feeds adding 0, 0.2 or 0.4% D,L pipecolic acid were provided to each group for 4 weeks. Then, they were fasted for 17 hours, and 10% glucose solution was orally administered to them in its provided amount of 2 g/kg of body weight. At 0, 15, 30, 60, and 120 minutes after the administration, the blood glucose level and blood insulin concentration were measured.
as §5
(c) Farming rats: 24 (3 experimental sections×8) male SD rats of 7 weeks old were purchased from Charles River Laboratories Japan, Inc. and each was separately farmed in an animal room in a light-dark cycle of 12 hours (7:00 to 19:00) at room temperature of 25° C. After habituation for two weeks, they were divided into 3 groups based on their body weights and fasting blood glucoses, and then the above feeds were provided for 4 weeks. Every Mondays, Wednesdays and Fridays during the period, their body weights and amounts of food ingested were measured, and the feeds were added. 4 weeks later, the oral glucose tolerance test was conducted.
(d) Oral glucose tolerance test: Fasting was started at 17:00 of the day before the test. At 10:00 of the test day, 10% glucose solution was orally administered to the rats in its provided amount of 2 g/kg of body weight. 0, 15, 30, 60, and 120 minutes after the administration, their blood was collected and their blood glucose levels and blood insulin concentrations were measured. The blood glucose levels were promptly measured after the blood collection by using a biochemical auto-analyzer for animals (Fuji DriChem 5500, produced by Fuji Photo Film Co., Ltd.). Further, the collected blood was centrifuged with a centrifuge (himac CF15D, produced by IlitachiKoki Co., Ltd) to take out the blood plasma, and the blood insulin concentrations were measured by using an insulin measurement kit (produced by Morinaga Institute of Biochemical Science, Inc.). FIG. 1A and FIG. 1B indicate the blood glucose transitions and the area under the blood glucose concentration time curve; and FIG. 1C indicates transitions of the blood insulin concentration.

[6] = feed adding 1.6% for 5 weeks, average value
[7] = feed adding 0.4% for 4 weeks, glucose 2 g/kg oral

O=C(O)C1CCCCN1 (centres unmarked) [D,L pipecolic acid]
decrease of the blood glucose after administering insulin [1]: promoted
blood insulin concentration (obese model rats; after glucose 2 g/kg oral): decreased to around the same extent as that of the normal diet groups
increase of the blood glucose after giving glucose (obese model rats; glucose 2 g/kg oral): hardly inhibited
decrease of blood triglyceride as compared with the control group [2]: about 20%
decrease of free fatty acids in the blood as compared with the control group [2]: about 20%
weights of epididymal fats [3]: decreased
weights of perinephric fats [3]: decreased
total lipids in the liver ([4]; feed adding 0 or 1.6% for 5 weeks): significantly correlate with the additive amount of pipecolic acid
decrease of liver total cholesterol as compared with the control group [4, 6]: about 20%
decrease of liver triglyceride as compared with the control group [4, 6]: about 20%
increase of blood glucose in the oral glucose tolerance test ([5]; eighth week): no strong effect of inhibiting the increase of the blood glucose was confirmed
increase of blood glucose in the oral glucose tolerance test ([5]; second week, compared with additive-free group): inhibited
increase of the blood glucose after injection of glucose ([5]; feed adding 0.8%, until the eighth week): effect of inhibiting the increase of the blood glucose after injection of glucose was seen
increase of the blood glucose after oral injection of glucose (normal rats; feed adding 0.2% for 4 weeks, glucose 2 g/kg oral): inhibited
blood insulin concentration (normal rats; feed adding 0.2 or 0.4% for 4 weeks, any group and any time period after glucose): did not change
blood glucose of 30 and 60 minutes after the administration (normal rats; [7]): decreased
increase of the blood glucose after oral injection of glucose (normal rats; [7]): inhibited
